From PubChem BioAssay AID1963976 (Molecular Pharmacology Branch, DTP, NCI, 2024)

Test system: 435261-313-R-J1-PDC tumor spheroid viability
Experiment: Anticancer human tumor 435261-313-R-J1-PDC patient-derived colon adenocarcinoma cell line growth inhibition [PI3K]
Conditions: spheroids with HUVEC and MSC; for IC50: curve of first compound; for viability, T/C: stronger effect = lower value
Method in brief: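 Spheroid viability read-out. Co-cultures contained the tumor line plus HUVEC and human MSCs. Each agent was paired with a PI3K inhibitor (inavolisib, alpelisib, duvelisib, copanlisib) across half-log dilutions starting at clinical Cmax, or at 10 microM when Cmax was unknown.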

[1] = second compound 0.00316 µM, first compound 0.0316 µM
[2] = second compound 0.00316 µM, first compound 0.1 µM
[3] = second compound 0.00316 µM, first compound 0.316 µM
[4] = second compound 0.00316 µM, first compound 1 µM
[5] = second compound 0.00316 µM, first compound 3.16 µM
[6] = second compound 0.00316 µM, first compound 10 µM
[7] = second compound 0.01 µM, first compound 0.0316 µM
[8] = second compound 0.01 µM, first compound 0.1 µM
[9] = second compound 0.01 µM, first compound 0.316 µM
[10] = second compound 0.01 µM, first compound 1 µM
[11] = second compound 0.01 µM, first compound 3.16 µM
[12] = second compound 0.01 µM, first compound 10 µM
[13] = second compound 0.0316 µM, first compound 0.0316 µM
[14] = second compound 0.0316 µM, first compound 0.1 µM
[15] = second compound 0.0316 µM, first compound 0.316 µM
[16] = second compound 0.0316 µM, first compound 1 µM
[17] = second compound 0.0316 µM, first compound 3.16 µM
[18] = second compound 0.0316 µM, first compound 10 µM
[19] = second compound 0.1 µM, first compound 0.0316 µM
[20] = second compound 0.1 µM, first compound 0.1 µM
[21] = second compound 0.1 µM, first compound 0.316 µM
[22] = second compound 0.1 µM, first compound 1 µM
[23] = second compound 0.1 µM, first compound 3.16 µM
[24] = second compound 0.1 µM, first compound 10 µM
[25] = second compound 0.316 µM, first compound 0.0316 µM
[26] = second compound 0.316 µM, first compound 0.1 µM
[27] = second compound 0.316 µM, first compound 0.316 µM
[28] = second compound 0.316 µM, first compound 1 µM
[29] = second compound 0.316 µM, first compound 3.16 µM
[30] = second compound 0.316 µM, first compound 10 µM
[31] = second compound 1 µM, first compound 0.0316 µM
[32] = second compound 1 µM, first compound 0.1 µM
[33] = second compound 1 µM, first compound 0.316 µM
[34] = second compound 1 µM, first compound 1 µM
[35] = second compound 1 µM, first compound 3.16 µM
[36] = second compound 1 µM, first compound 10 µM
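Also: spheroids exposed to compounds for 7 days.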

C=CC(=O)N1CCN(c2nc(=O)n(-c3c(C)ccnc3C(C)C)c3nc(-c4c(O)cccc4F)c(F)cc23)C(C)C1 (stereo not drawn) + CC(Nc1ccc2c(c1)OCCn1cc(N3C(=O)OCC3C(F)F)nc1-2)C(N)=O
IC50 (second compound 0.00316 µM): > 10000 nM
IC50 (second compound 0.01 µM): > 10000 nM
IC50 (second compound 0.0316 µM): > 10000 nM
IC50 (second compound 0.1 µM): < 31.6 nM
IC50 (second compound 0.316 µM): < 31.6 nM
IC50 (second compound 1 µM): < 31.6 nM
viability, T/C [1]: 83.2%
viability, T/C [2]: 81.4%
viability, T/C [3]: 111%
viability, T/C [4]: 126%
viability, T/C [5]: 117%
viability, T/C [6]: 120%
viability, T/C [7]: 99.2%
viability, T/C [8]: 88.4%
viability, T/C [9]: 95.1%
viability, T/C [10]: 89.5%
viability, T/C [11]: 91.7%
viability, T/C [12]: 111%
viability, T/C [13]: 70.7%
viability, T/C [14]: 78.6%
viability, T/C [15]: 71.5%
viability, T/C [16]: 70.2%
viability, T/C [17]: 87.4%
viability, T/C [18]: 101%
viability, T/C [19]: 49.7%
viability, T/C [20]: 42.6%
viability, T/C [21]: 45.5%
viability, T/C [22]: 37.9%
viability, T/C [23]: 60.9%
viability, T/C [24]: 54.5%
viability, T/C [25]: 20.8%
viability, T/C [26]: 22%
viability, T/C [27]: 27%
viability, T/C [28]: 22.8%
viability, T/C [29]: 25.5%
viability, T/C [30]: 21.1%
viability, T/C [31]: 20.2%
viability, T/C [32]: 16.5%
viability, T/C [33]: 18.1%
viability, T/C [34]: 20.4%
viability, T/C [35]: 14.9%
viability, T/C [36]: 17.9%

CCN1CCN(Cc2ccc(Nc3ncc(F)c(-c4cc(F)c5nc(C)n(C(C)C)c5c4)n3)nc2)CC1 + CC(Nc1ccc2c(c1)OCCn1cc(N3C(=O)OCC3C(F)F)nc1-2)C(N)=O
IC50 (second compound 0.00316 µM): 124 nM
IC50 (second compound 0.01 µM): 30.8 nM
IC50 (second compound 0.0316 µM): 20.6 nM
IC50 (second compound 0.1 µM): < 3.16 nM
IC50 (second compound 0.316 µM): < 3.16 nM
IC50 (second compound 1 µM): < 3.16 nM
viability, T/C (second compound 0.00316 µM, first compound 0.00316 µM): 94%
viability, T/C (second compound 0.00316 µM, first compound 0.01 µM): 71.5%
viability, T/C [1]: 53.1%
viability, T/C [2]: 66.9%
viability, T/C [3]: 37%
viability, T/C [4]: 33.9%
viability, T/C (second compound 0.01 µM, first compound 0.00316 µM): 71.5%
viability, T/C (second compound 0.01 µM, first compound 0.01 µM): 103%
viability, T/C [7]: 49.1%
viability, T/C [8]: 46.4%
viability, T/C [9]: 33.8%
viability, T/C [10]: 33.8%
viability, T/C (second compound 0.0316 µM, first compound 0.00316 µM): 73.6%
viability, T/C (second compound 0.0316 µM, first compound 0.01 µM): 58.5%
viability, T/C [13]: 47.3%
viability, T/C [14]: 29.1%
viability, T/C [15]: 28.3%
viability, T/C [16]: 30.5%
viability, T/C (second compound 0.1 µM, first compound 0.00316 µM): 37.7%
viability, T/C (second compound 0.1 µM, first compound 0.01 µM): 20.3%
viability, T/C [19]: 25.9%
viability, T/C [20]: 21.1%
viability, T/C [21]: 19.8%
viability, T/C [22]: 25.3%
viability, T/C (second compound 0.316 µM, first compound 0.00316 µM): 17.9%
viability, T/C (second compound 0.316 µM, first compound 0.01 µM): 20.8%
viability, T/C [25]: 16.7%
viability, T/C [26]: 16.8%
viability, T/C [27]: 17.2%
viability, T/C [28]: 16%
viability, T/C (second compound 1 µM, first compound 0.00316 µM): 17.1%
viability, T/C (second compound 1 µM, first compound 0.01 µM): 15.3%
viability, T/C [31]: 14%
viability, T/C [32]: 15.2%
viability, T/C [33]: 15.1%
viability, T/C [34]: 13.4%

Cn1ncc(Cl)c1-c1cc(C(=O)NC(CN)Cc2cccc(F)c2)sc1Cl (stereo not drawn) + CC(Nc1ccc2c(c1)OCCn1cc(N3C(=O)OCC3C(F)F)nc1-2)C(N)=O
IC50 (second compound 0.00316 µM): 567 nM
IC50 (second compound 0.01 µM): 447 nM
IC50 (second compound 0.0316 µM): 225 nM
IC50 (second compound 0.1 µM): 31.9 nM
IC50 (second compound 0.316 µM): < 31.6 nM
IC50 (second compound 1 µM): < 31.6 nM
viability, T/C [1]: 75.2%
viability, T/C [2]: 84.9%
viability, T/C [3]: 67.3%
viability, T/C [4]: 31.6%
viability, T/C [5]: 18.7%
viability, T/C [6]: 7.28%
viability, T/C [7]: 67.9%
viability, T/C [8]: 92.8%
viability, T/C [9]: 51.9%
viability, T/C [10]: 31.2%
viability, T/C [11]: 19.1%
viability, T/C [12]: 6.44%
viability, T/C [13]: 67.8%
viability, T/C [14]: 91.3%
viability, T/C [15]: 37.5%
viability, T/C [16]: 25.3%
viability, T/C [17]: 17.2%
viability, T/C [18]: 5.79%
viability, T/C [19]: 50.8%
viability, T/C [20]: 38%
viability, T/C [21]: 21.1%
viability, T/C [22]: 19.4%
viability, T/C [23]: 15.4%
viability, T/C [24]: 5.16%
viability, T/C [25]: 20.9%
viability, T/C [26]: 20.1%
viability, T/C [27]: 14%
viability, T/C [28]: 16.5%
viability, T/C [29]: 13%
viability, T/C [30]: 4.44%
viability, T/C [31]: 18.2%
viability, T/C [32]: 13.5%
viability, T/C [33]: 15.7%
viability, T/C [34]: 17.2%
viability, T/C [35]: 11.4%
viability, T/C [36]: 2.55%

Cn1nccc1Nc1nccc(-c2ccn(C(CO)c3ccc(Cl)c(F)c3)c(=O)c2)n1 (stereo not drawn) + CC(Nc1ccc2c(c1)OCCn1cc(N3C(=O)OCC3C(F)F)nc1-2)C(N)=O
IC50 (second compound 0.00316 µM): 421 nM
IC50 (second compound 0.01 µM): 218 nM
IC50 (second compound 0.0316 µM): 105 nM
IC50 (second compound 0.1 µM): < 31.6 nM
IC50 (second compound 0.316 µM): < 31.6 nM
IC50 (second compound 1 µM): < 31.6 nM
viability, T/C [1]: 90.4%
viability, T/C [2]: 73.3%
viability, T/C [3]: 51.7%
viability, T/C [4]: 40.1%
viability, T/C [5]: 22.1%
viability, T/C [6]: 12.8%
viability, T/C [7]: 72.6%
viability, T/C [8]: 71.7%
viability, T/C [9]: 39.5%
viability, T/C [10]: 25.6%
viability, T/C [11]: 27%
viability, T/C [12]: 11.7%
viability, T/C [13]: 68%
viability, T/C [14]: 52.1%
viability, T/C [15]: 28.7%
viability, T/C [16]: 18.9%
viability, T/C [17]: 14.9%
viability, T/C [18]: 8.18%
viability, T/C [19]: 38.6%
viability, T/C [20]: 23.1%
viability, T/C [21]: 16.9%
viability, T/C [22]: 11.8%
viability, T/C [23]: 10.1%
viability, T/C [24]: 5.9%
viability, T/C [25]: 19.6%
viability, T/C [26]: 16.3%
viability, T/C [27]: 9.92%
viability, T/C [28]: 8.05%
viability, T/C [29]: 5.78%
viability, T/C [30]: 3.34%
viability, T/C [31]: 16.8%
viability, T/C [32]: 12.2%
viability, T/C [33]: 6.71%
viability, T/C [34]: 6.3%
viability, T/C [35]: 4.27%
viability, T/C [36]: 0.75%
